The record followed here is US6949574B2 (Bristol-Myers Squibb Company, priority 2002, dated 2005).

One may read the IC50 as the concentration at which inhibition is half-maximal.

One test has as its target T1, human FAAH (Homo sapiens, UniProt O00519).
T1 construct: expressed in transfected cells; host or cells: H4 cells (H4-FAAH, Geneticin-selected); crude membrane homogenates
T1 sequence (O00519 1-579): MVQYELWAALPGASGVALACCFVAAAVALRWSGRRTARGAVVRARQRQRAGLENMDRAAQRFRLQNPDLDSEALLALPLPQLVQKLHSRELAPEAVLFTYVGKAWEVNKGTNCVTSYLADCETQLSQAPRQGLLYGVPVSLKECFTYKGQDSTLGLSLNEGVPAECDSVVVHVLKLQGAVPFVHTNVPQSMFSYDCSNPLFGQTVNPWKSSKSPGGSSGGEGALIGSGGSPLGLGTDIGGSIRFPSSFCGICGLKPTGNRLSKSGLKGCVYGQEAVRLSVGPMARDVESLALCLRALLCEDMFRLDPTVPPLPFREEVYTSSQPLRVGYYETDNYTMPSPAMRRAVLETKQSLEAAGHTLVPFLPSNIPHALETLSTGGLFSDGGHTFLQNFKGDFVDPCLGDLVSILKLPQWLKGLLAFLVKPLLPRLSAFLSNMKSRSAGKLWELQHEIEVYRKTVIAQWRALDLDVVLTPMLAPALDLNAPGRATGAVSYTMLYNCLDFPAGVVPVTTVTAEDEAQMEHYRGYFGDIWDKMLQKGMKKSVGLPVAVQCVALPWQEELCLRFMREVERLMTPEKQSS
The experiment in a line: FAAH activity in membrane homogenates of H4-FAAH cells, [3H]-anandamide hydrolysis.
Settings: not given
The class given is biochemical. The procedure: Homogenates of crude membranes were prepared from H4 cells that express transfected human FAAH (H4-FAAH cells). Briefly, cells were grown in DMEM supplemented with 10% FBS and Geneticin at a final concentration of 500 μg/ml (Gibco BRL, Rockville, Md.). Confluent cultures of H4-FAAH cells were rinsed twice with phosphate-buffered saline [138 mM NaCl, 4.1 mM KCl, 5.1 mM Na2PO4, 1.5 mM KH2PO4 (pH 7.5), 37° C.] and incubated for 5 to 10 minutes at 4° C. in lysis buffer [1 mM sodium bicarbonate]. Cells were transferred from plates to polypropylene tubes (16×100 mm), homogenized and centrifuged at 32,000×g for 30 minutes. Pellets were resuspended by homogenization in lysis buffer and centrifuged at 32,000×g for 30 minutes. Pellets were resuspended in lysis buffer (15-20 μg protein/ml) then stored at −80° C. until needed. On the day of an experiment, membranes were diluted to 2.67 μg protein/ml in 125 mM Tris-Cl, pH 9.0.
Activity of FAAH was measured using a modification of the method described by Omeir et al., 1995 (Life Sci 56:1999, 1995). Membrane homogenates (240 ng protein) were incubated at room temperature for one hour with 1.67 nM anandamide [ethanolamine 1-^3H] (available from American Radiolabeled Chemical Inc., St Louis, Mo.) and 10 μM anandamide (available from Sigma/RBI, St. Louis, Mo.) in the absence and presence of inhibitors. The reaction was stopped by the addition of 1 volume of a solution of 1:1 methanol and dichloroethane. The mixture was shaken and then centrifuged at 1000×g for 15 minutes to separate the aqueous and organic phases. An aliquot of the aqueous phase, containing [^3H]-ethanolamine was withdrawn and counted by scintillation spectroscopy. Data were expressed as the percentage of [^3H]-ethanolamine formed versus vehicle, after subtraction of the background radioactivity determined in the presence of 10 μM arachidonyl trifluoromethyl ketone (ATFMK), an inhibitor of FAAH. IC50 values were determined using a four-parameter logistic equation for dose-response curves.
`CCCCOc1cccc(NC(=O)ON=C(C)C)c1` [Example 66, 2-Propanone, O-[[(3-butoxyphenyl)amino]carbonyl]oxime]: the IC50 is > 500 nM.

Still in this test, the particulars now being: H4-FAAH cell membranes, 10 μM anandamide, room temperature, one hour; read-out: IC50.
In the case of `CCCCCCCCCCCCOc1ccc(NC(=O)ON=C(C)C)cc1` [Example 40, 2-Propanone, O-[[(4-dodecyloxyphenyl)amino]carbonyl]oxime], the IC50 was < 10 nM. In the case of `CCCCCCCCCCCCOc1ccc(NC(=O)O/N=C/c2ccccc2)cc1` [Example 41, Benzaldehyde, O-[[(4-dodecyloxyphenyl)amino]carbonyl]oxime], the IC50 is < 10 nM. On to `CCCCCCCCCCCCOc1ccc(NC(=O)O/N=C/c2ccc(F)cc2)cc1` [Example 42, 4-Fluorobenzaldehyde, O-[[(4-dodecyloxyphenyl)amino]carbonyl]oxime], for which the IC50 is < 10 nM. As for `CCCCCCCCCCCCOc1ccc(NC(=O)O/N=C/c2cccnc2)cc1` [Example 43, 3-Pyridinecarboxaldehyde, O-[[(4-dodecyloxyphenyl)amino]carbonyl]oxime], the IC50 is < 10 nM. For the molecule `CCCCOc1ccc(NC(=O)O/N=C/c2cccnc2)cc1` [Example 44, 3-Pyridinecarboxaldehyde, O-[[(4-butoxyphenyl)amino]carbonyl]oxime], the IC50 lay in the range of 10 to 100 nM. Turning to `CCCCCCCCOc1ccc(NC(=O)O/N=C/c2ccccc2)cc1` [Example 45, Benzaldehyde, O-[[(4-octyloxyphenyl)amino]carbonyl]oxime], the IC50 is < 10 nM.

For the molecule `CCCCCCCCOc1ccc(NC(=O)O/N=C/c2ccc(F)cc2)cc1` [Example 46, 4-Fluorobenzaldehyde, O-[[(4-octyloxyphenyl)amino]carbonyl]oxime], the IC50 was < 10 nM.

As to `CCCCCCCCCOc1ccc(NC(=O)O/N=C/c2ccccc2)cc1` [Example 47, Benzaldehyde, O-[[(4-nonyloxyphenyl)amino]carbonyl]oxime], the IC50 is < 10 nM.

Regarding `CCCCCCCCCOc1ccc(NC(=O)O/N=C/c2ccc(F)cc2)cc1` [Example 48, 4-Fluorobenzaldehyde, O-[[(4-nonyloxyphenyl)amino]carbonyl]oxime], the IC50 was < 10 nM. As to `CCCCCCCCCOc1ccc(NC(=O)O/N=C/c2ccc(F)c(F)c2)cc1` [Example 49, 3,4-Difluorobenzaldehyde, O-[[(4-nonyloxyphenyl)amino]carbonyl]oxime], the IC50 is < 10 nM. Consider `CCCCCCCCCOc1ccc(NC(=O)O/N=C/c2c(F)cccc2F)cc1` [Example 50, 2,6-Difluorobenzaldehyde, O-[[(4-nonyloxyphenyl)amino]carbonyl]oxime], for which the IC50 is < 10 nM. As for `CCCCCCCCCOc1ccc(NC(=O)O/N=C/c2ccc(F)cc2F)cc1` [Example 51, 2,4-Difluorobenzaldehyde, O-[[(4-nonyloxyphenyl)amino]carbonyl]oxime], the IC50 is < 10 nM.

As to `CCCCCCCCCOc1ccc(NC(=O)O/N=C/c2cccc(F)c2)cc1` [Example 52, 3-Fluorobenzaldehyde, O-[[(4-nonyloxyphenyl)amino]carbonyl]oxime], the IC50 was < 10 nM. In the case of `CCCCCCCCCOc1ccc(NC(=O)O/N=C/c2ccc(C(F)(F)F)cc2)cc1` [Example 53, 4-(Trifluoromethyl)benzaldehyde, O-[[(4-nonyloxyphenyl)amino]carbonyl]oxime], the IC50 is < 10 nM.

`CCCCCCCCCOc1ccc(NC(=O)O/N=C/c2cccc(C(F)(F)F)c2F)cc1` [Example 54, 2-Fluoro-3-(trifluoromethyl)benzaldehyde, O-[[(4-nonyloxyphenyl)amino]carbonyl]oxime]: the IC50 is < 10 nM. As to `CCCCCCCCCOc1ccc(NC(=O)O/N=C/c2cccc(F)c2F)cc1` [Example 55, 2,3-Difluorobenzaldehyde, O-[[(4-nonyloxyphenyl)amino]carbonyl]oxime], the IC50 was < 10 nM. Consider `CCCCCCCCCOc1ccc(NC(=O)O/N=C/c2cc(F)c(F)cc2F)cc1` [Example 56, 2,4,5-Trifluorobenzaldehyde, O-[[(4-nonyloxyphenyl)amino]carbonyl]oxime], for which the IC50 is < 10 nM. As for `CCCCCCCCCOc1ccc(NC(=O)O/N=C/c2cc(C(F)(F)F)ccc2F)cc1` [Example 57, 2-Fluoro-5-(trifluoromethyl)benzaldehyde, O-[[(4-nonyloxyphenyl)amino]carbonyl]oxime], the IC50 was < 10 nM.

As to `O=C(Nc1ccc(OCCCN2CCOCC2)cc1)O/N=C/c1ccc(F)cc1` [Example 58, 4-Fluorobenzaldehyde, O-[[4-[3-(4-morpholinyl)propoxyphenyl]amino]carbonyl]oxime], the IC50 was > 500 nM. Turning to `CCCCOc1ccc(NC(=O)O/N=C/c2ccc([N+](=O)[O-])cc2)cc1` [Example 59, 4-Nitrobenzaldehyde, O-[[(4-butoxyphenyl)amino]carbonyl]oxime], the IC50 is < 10 nM.

For `CCCCOc1ccc(NC(=O)ON=C(C)C)cc1` [Example 60, 2-Propanone, O-[[(4-butoxyphenyl)amino]carbonyl]oxime], the IC50 fell in the range of 10 to 100 nM. Turning to `CCCCOc1ccc(CNC(=O)ON=C(C)C)cc1` [Example 61, 2-Propanone, O-[[(4-butoxyphenylmethyl)amino]carbonyl]oxime], the IC50 is > 500 nM. With `CCCCOc1ccc(CNC(=O)O/N=C/c2ccccc2)cc1` [Example 62, Benzaldehyde, O-[[(4-butoxyphenylmethyl)amino]carbonyl]oxime], the IC50 fell in the range of 10 to 100 nM.

With `CCCCOc1ccc(CNC(=O)O/N=C/c2ccc(F)cc2)cc1` [Example 63, 4-Fluorobenzaldehyde, O-[[(4-butoxyphenylmethyl)amino]carbonyl]oxime], the IC50 lay in the range of 10 to 100 nM. As for `CCCCOc1ccc(CNC(=O)O/N=C/c2cccnc2)cc1` [Example 64, 3-Pyridinecarboxaldehyde, O-[[(4-butoxyphenylmethyl)amino]carbonyl]oxime], the IC50 was 10 to 100 nM. Still for that read-out and setting: next, `CCCCOc1cccc(NC(=O)O/N=C/c2cccnc2)c1` [Example 65, 3-Pyridinecarboxaldehyde, O-[[(3-butoxyphenyl)amino]carbonyl]oxime]: 10 to 100 nM. Turning to `CCCCOc1cccc(NC(=O)O/N=C/c2ccccc2)c1` [Example 67, Benzaldehyde, O-[[(3-butoxyphenyl)amino]carbonyl]oxime], the half-inhibitory concentration (IC50) lay in the range of 10 to 100 nM. The same measure, in the same setting: next, `CCCCOc1cccc(NC(=O)O/N=C/c2ccc(F)cc2)c1` [Example 68, 4-Fluorobenzaldehyde, O-[[(3-butoxyphenyl)amino]carbonyl]oxime]: 10 to 100 nM; `O=C(Nc1ccc(-c2ccccc2)cc1)O/N=C/c1cccnc1` [Example 69, 3-Pyridinecarboxaldehyde, O-[[([1,1′-biphenyl]-4-yl)amino]carbonyl]oxime]: 10 to 100 nM.

Turning to `CCc1ccc(-c2ccc(NC(=O)O/N=C/c3cccnc3)cc2)cc1` [Example 70, 3-Pyridinecarboxaldehyde, O-[[(4′-ethyl-[1,1′-biphenyl]-4-yl)amino]carbonyl]oxime], the IC50 was 10 to 100 nM. Turning to `O=C(Nc1ccc(Oc2ccccc2)cc1)O/N=C/c1cccnc1` [Example 71, 3-Pyridinecarboxaldehyde, O-[[(4-phenoxyphenyl)amino]carbonyl]oxime], the half-maximal inhibitory concentration (IC50) was < 10 nM. On to `O=C(Nc1ccc(-c2ccccc2)cc1)O/N=C/c1ccccc1` [Example 72, Benzaldehyde, O-[[([1,1′-biphenyl]-4-yl)amino]carbonyl]oxime], for which the IC50 is 10 to 100 nM. As to `CCc1ccc(-c2ccc(NC(=O)O/N=C/c3ccccc3)cc2)cc1` [Example 74, Benzaldehyde, O-[[(4′-ethyl-[1,1′-biphenyl]-4-yl)amino]carbonyl]oxime], the IC50 was < 10 nM. Turning to `CCc1ccc(-c2ccc(NC(=O)O/N=C/c3ccc(F)cc3)cc2)cc1` [Example 75, 4-Fluorobenzaldehyde, O-[[(4′-ethyl-[1,1′-biphenyl]-4-yl)amino]carbonyl]oxime], the IC50 was < 10 nM.
